Assay results: ChEMBL document CHEMBL2073992, “Polarized transport of docetaxel and vinblastine mediated by P-glycoprotein in human intestinal epithelial cell monolayers” (Biochem Pharmacol, 1994)

Target: ATP-dependent translocase ABCB1 (Homo sapiens, UniProt P08183)
Assay: TP_TRANSPORTER: transepithelial transport (basal to apical) in Caco-2 cells
Type: functional, cell-based

Chain of ATP-dependent translocase ABCB1 (P08183 whole entry): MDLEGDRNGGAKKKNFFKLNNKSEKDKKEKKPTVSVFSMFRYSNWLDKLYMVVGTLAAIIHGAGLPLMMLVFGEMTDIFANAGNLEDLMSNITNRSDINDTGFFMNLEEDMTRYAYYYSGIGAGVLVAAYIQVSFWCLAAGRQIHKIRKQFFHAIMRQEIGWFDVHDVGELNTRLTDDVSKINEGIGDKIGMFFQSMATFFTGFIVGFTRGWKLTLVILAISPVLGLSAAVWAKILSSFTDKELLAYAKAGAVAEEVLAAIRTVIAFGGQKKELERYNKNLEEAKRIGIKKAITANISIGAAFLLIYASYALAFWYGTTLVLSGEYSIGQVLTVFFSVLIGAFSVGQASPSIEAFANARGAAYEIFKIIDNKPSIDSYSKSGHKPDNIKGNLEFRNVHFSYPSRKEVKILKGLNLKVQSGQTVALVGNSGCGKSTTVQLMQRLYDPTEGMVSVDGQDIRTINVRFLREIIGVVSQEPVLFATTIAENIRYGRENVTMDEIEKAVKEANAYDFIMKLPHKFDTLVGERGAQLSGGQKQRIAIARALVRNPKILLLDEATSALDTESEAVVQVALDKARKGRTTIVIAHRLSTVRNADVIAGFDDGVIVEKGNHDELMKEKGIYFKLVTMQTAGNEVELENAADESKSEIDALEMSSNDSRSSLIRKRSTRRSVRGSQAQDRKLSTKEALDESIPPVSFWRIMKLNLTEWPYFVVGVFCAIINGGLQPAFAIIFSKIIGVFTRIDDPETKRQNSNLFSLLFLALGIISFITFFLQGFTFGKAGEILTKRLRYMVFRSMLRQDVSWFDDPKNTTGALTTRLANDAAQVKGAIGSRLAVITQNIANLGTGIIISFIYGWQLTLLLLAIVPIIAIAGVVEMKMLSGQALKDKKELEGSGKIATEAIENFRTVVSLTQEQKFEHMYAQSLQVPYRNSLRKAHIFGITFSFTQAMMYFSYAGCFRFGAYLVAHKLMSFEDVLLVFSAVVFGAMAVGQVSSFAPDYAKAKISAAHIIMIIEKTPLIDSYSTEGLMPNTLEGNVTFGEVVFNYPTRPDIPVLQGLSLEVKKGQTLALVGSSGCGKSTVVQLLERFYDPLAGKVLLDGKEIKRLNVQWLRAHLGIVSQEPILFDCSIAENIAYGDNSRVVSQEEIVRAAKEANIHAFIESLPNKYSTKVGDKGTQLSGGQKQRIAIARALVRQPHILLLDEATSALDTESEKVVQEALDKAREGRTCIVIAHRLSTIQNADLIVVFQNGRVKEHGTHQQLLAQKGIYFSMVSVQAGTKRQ

CC(=O)O[C@@]12CO[C@@H]1C[C@H](O)[C@@]1(C)C(=O)[C@H](O)C3=C(C)[C@@H](OC(=O)[C@H](O)[C@@H](NC(=O)OC(C)(C)C)c4ccccc4)C[C@@](O)([C@@H](OC(=O)c4ccccc4)[C@H]21)C3(C)C.O.O.O [DOCETAXEL]
Activity: substrate [+]
